Experimental data from ChEMBL document CHEMBL1141223, “Potent Dmt-Tic pharmacophoric delta- and mu-opioid receptor antagonists” (J Med Chem, 2005).

Tests used:
[1] = molecular target: Delta-type opioid receptor (Mus musculus) (UniProt P32300); assay: Maximal inhibition of muscle contraction in mouse vas deferens at 10000 nM; assay type: functional, tissue-based; parameters: scale not given: the % may be the effect or the level left; details: Muscle tissue
Mu-type opioid receptor [2] = molecular target: Mu-type opioid receptor (Rattus norvegicus, UniProt P33535); assay: Displacement of [3H]DAMGO from mu opioid receptor expressed in rat brain synaptosomal membranes; assay type: cell membranes, Sprague-Dawley, Membrane
[3] = molecular target: Opioid receptors; mu & delta (Rattus norvegicus) (UniProt P33533+P33535); assay: Selectivity ratio of rat mu opioid receptor over rat delta opioid receptor; assay type: protein assay
[4] = molecular target: T1, Delta-type opioid receptor (Mus musculus, UniProt P32300); assay: Displacement of deltorphin-II from delta opioid receptor in mouse vas deferens; details: read-out: pA2 (converted)
Mu-type opioid receptor [5] = molecular target: T2, Mu-type opioid receptor (Cavia porcellus, UniProt P97266); assay: Displacement of endomorphin-2 from mu opioid receptor in guinea pig ileum; assay type: tissue-based, Hartley; details: read-out: pA2 (converted)
[6] = molecular target: T1, Delta-type opioid receptor; assay: Agonistic activity at delta opioid receptor in mouse vas deferens; assay type: functional, tissue-based
[7] = molecular target: Mu-type opioid receptor (Cavia porcellus) (UniProt P97266); assay: Maximal inhibition of muscle contraction in guinea pig ileum at 10000 nM; assay type: functional, tissue-based; parameters: scale not given: the % may be the effect or the level left
Mu-type opioid receptor [8] = molecular target: T2, Mu-type opioid receptor; assay: Agonistic activity at mu opioid receptor in myenteric plexus longitudinal muscle of guinea pig ileum; assay type: functional, tissue-based, Hartley
[9] = molecular target: Delta-type opioid receptor (Rattus norvegicus, UniProt P33533); assay: Displacement of [3H]deltorphin-II from delta opioid receptor in rat brain synaptosomal membranes; assay type: cell membranes, Sprague-Dawley, Membrane
Chain of Delta-type opioid receptor (Rattus norvegicus, UniProt P33533) (P33533 whole entry): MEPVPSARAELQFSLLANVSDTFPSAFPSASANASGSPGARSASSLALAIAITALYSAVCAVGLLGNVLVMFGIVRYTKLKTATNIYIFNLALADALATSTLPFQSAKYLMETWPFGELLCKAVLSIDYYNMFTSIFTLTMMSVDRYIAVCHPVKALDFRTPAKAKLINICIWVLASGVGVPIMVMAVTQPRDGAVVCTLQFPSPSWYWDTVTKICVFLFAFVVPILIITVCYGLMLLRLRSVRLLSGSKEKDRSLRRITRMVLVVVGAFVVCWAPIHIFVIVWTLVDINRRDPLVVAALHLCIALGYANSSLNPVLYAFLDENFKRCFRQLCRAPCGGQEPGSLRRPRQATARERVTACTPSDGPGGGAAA

T1 sequence (P32300 whole entry): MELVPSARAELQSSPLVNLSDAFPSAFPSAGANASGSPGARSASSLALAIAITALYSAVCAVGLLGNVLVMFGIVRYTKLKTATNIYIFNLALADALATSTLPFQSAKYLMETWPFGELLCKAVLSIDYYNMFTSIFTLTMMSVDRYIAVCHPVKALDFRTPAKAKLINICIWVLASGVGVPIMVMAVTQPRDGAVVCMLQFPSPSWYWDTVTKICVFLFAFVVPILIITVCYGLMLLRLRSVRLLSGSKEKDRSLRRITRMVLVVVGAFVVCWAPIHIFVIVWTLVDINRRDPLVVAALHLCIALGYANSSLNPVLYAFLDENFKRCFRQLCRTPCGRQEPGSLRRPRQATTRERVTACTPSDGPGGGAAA
Chain of Delta-type opioid receptor (Mus musculus) (P32300 whole entry): as above
Chain of Mu-type opioid receptor (Rattus norvegicus, UniProt P33535) (P33535 whole entry): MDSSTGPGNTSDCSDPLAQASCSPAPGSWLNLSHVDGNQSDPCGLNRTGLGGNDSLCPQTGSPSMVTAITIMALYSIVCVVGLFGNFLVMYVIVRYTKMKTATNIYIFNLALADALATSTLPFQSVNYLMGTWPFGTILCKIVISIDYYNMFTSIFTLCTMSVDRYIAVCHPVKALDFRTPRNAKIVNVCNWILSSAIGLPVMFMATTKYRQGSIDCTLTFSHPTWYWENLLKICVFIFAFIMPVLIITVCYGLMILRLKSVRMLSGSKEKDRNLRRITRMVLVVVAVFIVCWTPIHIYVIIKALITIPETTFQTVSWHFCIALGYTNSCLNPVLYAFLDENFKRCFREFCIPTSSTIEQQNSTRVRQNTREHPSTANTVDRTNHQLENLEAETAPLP
Chain of Opioid receptors; mu & delta (Rattus norvegicus) (P33533 whole entry, looked up): as the sequence (P33533 whole entry) above
Chain of Opioid receptors; mu & delta (Rattus norvegicus) (P33535 whole entry, looked up): as the sequence (P33535 whole entry) above
T2 sequence (P97266 whole entry): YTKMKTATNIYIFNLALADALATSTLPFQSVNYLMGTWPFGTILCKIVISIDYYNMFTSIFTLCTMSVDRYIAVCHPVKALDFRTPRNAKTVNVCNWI
Chain of Mu-type opioid receptor (Cavia porcellus) (P97266 whole entry): as above

Structure (SMILES)	Activity [1] [%]	Ki (Mu-type opioid receptor [2]) [nM]	Ratio Ki [3]	Kb [4] [nM]	Kb (Mu-type opioid receptor [5]) [nM]	IC50 [6] [µM]	Activity [7] [%]	IC50 (Mu-type opioid receptor [8]) [µM]	Ki [9] [nM]
Cc1cc(O)cc(C)c1C[C@H](N)C(=O)N1Cc2ccccc2CC1C(=O)NCCc1nc(O)c(CCNC(=O)C2Cc3ccccc3CN2C(=O)[C@@H](N)Cc2c(C)cc(O)cc2C)nc1C (stereo partly specified)	< 1	2.83	30	0.0186	166	> 10	< 27	> 10	0.095
Cc1cc(O)cc(C)c1C[C@H](N)C(=O)N1Cc2ccccc2CC1C(=O)NCCCCc1nc(O)c(CCNC(=O)C2Cc3ccccc3CN2C(=O)[C@@H](N)Cc2c(C)cc(O)cc2C)nc1C (stereo partly specified)	< 1	1.37	13	0.0102	–	> 10	< 44	> 10	0.107
Cc1cc(O)cc(C)c1C[C@@H](C(=O)N1Cc2ccccc2CC1C(=O)NCCCc1nc(O)c(CCCNC(=O)C2Cc3ccccc3CN2C(=O)[C@H](Cc2c(C)cc(O)cc2C)N(C)C)nc1C)N(C)C (stereo partly specified)	< 1	1.68	6	0.038	19.5	> 10	< 1	> 10	0.287
Cc1cc(O)cc(C)c1C[C@H](N)C(=O)N1Cc2ccccc2CC1C(=O)NCCCCc1[nH]c(=O)c(CCCNC(=O)C2Cc3ccccc3CN2C(=O)[C@@H](N)Cc2c(C)cc(O)cc2C)nc1C (stereo partly specified)	–	1.56	–	0.0251	–	> 10	–	> 10	0.16
Cc1cc(O)cc(C)c1C[C@H](N)C(=O)N1Cc2ccccc2CC1C(=O)NCCCCc1nc(O)c(CCCNC(=O)C2Cc3ccccc3CN2C(=O)[C@@H](N)Cc2c(C)cc(O)cc2C)nc1C (stereo partly specified)	< 10	–	10	–	–	–	< 1	–	–
Cc1cc(O)cc(C)c1C[C@H](N)C(=O)N1Cc2ccccc2CC1C(=O)NCCCCCCCCCCNC(=O)C1Cc2ccccc2CN1C(=O)[C@@H](N)Cc1c(C)cc(O)cc1C (stereo partly specified)	< 28	4.86	3	0.0107	–	> 10	–	5.42	1.53
Cc1cc(O)cc(C)c1C[C@H](N)C(=O)N1Cc2ccccc2CC1C(=O)NCCCCc1nc(C)c(CCCNC(=O)C2Cc3ccccc3CN2C(=O)[C@@H](N)Cc2c(C)cc(O)cc2C)nc1O (stereo partly specified)	22	2.28	25	0.0339	112	> 10	< 9	> 10	0.092
Cc1cc(O)cc(C)c1C[C@@H](C(=O)N1Cc2ccccc2CC1C(=O)NCCCCCCNC(=O)C1Cc2ccccc2CN1C(=O)[C@H](Cc1c(C)cc(O)cc1C)N(C)C)N(C)C (stereo partly specified)	< 1	2.21	37	0.00525	4.57	> 10	< 1	> 10	0.06
Cc1cc(O)cc(C)c1C[C@H](N)C(=O)N1Cc2ccccc2CC1C(=O)NCCCCCCNC(=O)C1Cc2ccccc2CN1C(=O)[C@@H](N)Cc1c(C)cc(O)cc1C (stereo partly specified)	< 1	1.79	–	0.024	–	> 10	–	–	0.129
Cc1cc(O)cc(C)c1C[C@H](N)C(=O)N1Cc2ccccc2CC1C(=O)NCCCCc1nc(O)c(CCCCNC(=O)C2Cc3ccccc3CN2C(=O)[C@@H](N)Cc2c(C)cc(O)cc2C)nc1C (stereo partly specified)	< 1	1.74	5	0.00871	–	> 10	< 34	> 10	0.323
Cc1cc(O)cc(C)c1C[C@H](N)C(=O)N1Cc2ccccc2CC1C(=O)NCCCCNC(=O)C1Cc2ccccc2CN1C(=O)[C@@H](N)Cc1c(C)cc(O)cc1C (stereo partly specified)	< 1	5.72	46	0.0309	102	> 10	< 16	> 10	0.124
Cc1cc(O)cc(C)c1C[C@H](N)C(=O)N1Cc2ccccc2CC1C(=O)NCCCc1nc(O)c(CCCNC(=O)C2Cc3ccccc3CN2C(=O)[C@@H](N)Cc2c(C)cc(O)cc2C)nc1C (stereo partly specified)	< 1	3.08	20	0.0275	–	> 10	–	7.02	0.155
Cc1cc(O)cc(C)c1C[C@H](N)C(=O)N1Cc2ccccc2CC1C(=O)NCc1nc(O)c(CNC(=O)C2Cc3ccccc3CN2C(=O)[C@@H](N)Cc2c(C)cc(O)cc2C)nc1C (stereo partly specified)	< 1	3.76	23	0.00603	–	> 10	< 15	> 10	0.163
